Article PMC11013143, “4-Chloroisocoumarins as Chlamydial Protease Inhibitors and Anti-Chlamydial Agents” (Molecules, 2024)
≈ marks a conversion by molar mass, not a printed value.

Columns and labels:
[1] = target: T1, Human Leukocyte Elastase (HLE) (Homo sapiens, UniProt P08246); assay: HLE protease inhibition assay; type: biochemical
T1 construct: purchased Athens Research and Technology 16-15-051200
T1 sequence (P08246 30-247 limits assumed): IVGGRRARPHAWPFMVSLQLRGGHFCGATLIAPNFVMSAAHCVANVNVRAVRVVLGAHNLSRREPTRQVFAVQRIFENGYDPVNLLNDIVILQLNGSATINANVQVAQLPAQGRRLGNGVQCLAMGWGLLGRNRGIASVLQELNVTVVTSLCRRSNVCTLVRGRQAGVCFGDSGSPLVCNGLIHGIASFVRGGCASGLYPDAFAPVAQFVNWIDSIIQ
Procedure: Elastase was purchased from Athens Research and Technology (Cat No. 16-15-051200). Elastase (100 µg) was dissolved in Tris buffer (100 mM Tris, 20 mM CaCl2, pH 8.1, 3.14 mL), giving a concentration of 1.117 µM, and 25 µL was added to each well containing the respective inhibitor. The plate was incubated at 37 °C for 15 min.
N-Suc-AAA-pNA (Sigma Aldrich, Bayswater, Australia, S4760, 100 µL, 1 mg/mL, […]) was added to each well, and the absorbance was monitored every six minutes at 405 nm. The rate of change of absorbance was used as a comparison to controls to determine the % inhibition of protein in Microsoft Excel^TM (v2402), and these values were exported to GraphPad Prism (v8.0.1) for IC50 calculation.

[2] = test system: C. trachomatis; assay: Chlamydia trachomatis growth inhibition assay in HEp-2 host cells; type: cell-based; details: for statistical significance of anti-chlamydial activity: relative to solvent controls
Procedure: The workflow for the evaluation of chlamydial growth inhibition is described in the supplementary information (Figure S6). Briefly, HEp-2 cells were seeded in a 96-well plate and grown for 24 h; they were then infected with a fixed quantity of C. trachomatis. The infection was propagated for 4 h, and then a mixture of test compound and cycloheximide was added and the plate was incubated for a further 26 h (30 h post infection). The cells were fixed with methanol and then stained with fluorescent antibodies to visualize chlamydial inclusions, and the growth was measured using inclusion counts relative to vehicle controls.
HEp-2 cells were grown until confluent in a T-75 flask with DMEM (containing 10% FCS, gentamycin (0.05 mg/mL), streptomycin (0.1 mg/mL) and glutamine (Sigma-Aldrich Cat No. G7513, 4 mM); they were then harvested with trypsin, and the cell density was determined with a haemocytometer. Cells were diluted to 1 × 10^5 cells/mL, and 200 µL was dispensed to each well in a 96-well plate and then incubated for 24 h at 5% CO2 at 37 °C.
The supernatant was removed, and 100 µL of the respective chlamydia species in media (100,000 IFU/mL) was added, giving an MOI of 0.5. The plate was sealed and centrifuged at 500× g/28 °C for 30 min and then incubated for a further 3.5 h at 37 °C with 5% CO2. The supernatant was removed, and 100 µL of cycloheximide in DMEM (1 µg/mL) was added in addition to 100 µL of drug stock solution to each respective well with DMSO and media negative controls and also azithromycin positive control. The plate was incubated for a further 26 h.
The supernatant was removed, and wells were washed with PBS (2 × 150 µL) and then fixed in methanol for eight minutes. The methanol was removed and washed with additional PBS (2 × 150 µL) and stored at 4 °C with 100 µL PBS per well and then stained and analyzed using fluorescence microscopy, which is outlined below.
Cells in fixed plates were permeabilized with 0.5% Triton X-100 in PBS for 15 min and then blocked with 1% BSA in PBS for 45 min. Anti-HtrA polyclonal antibody (sera) (1:600) (in-house), anti-mouse tubulin (Sigma-Aldrich Cat no. T-5168, 1:3000) and DAPI (125 ng/mL) in PBS were added to each well (70 µL) and then gently shaken at room temperature while shielding it from light for 45 min. The primary antibodies were removed, and the wells were washed with PBS (4 × 150 µL). Secondary antibodies (goat anti-rabbit Alexafluor 488, Thermo Fisher Cat No. A-11008 and goat anti-mouse Alexafluor 568 (Thermo Fisher Cat No. A-11004)) in PBS (70 µL, 1:600 respectively) were added and the wells were gently shaken at room temperature while shielding them from light for 45 min. The antibodies were removed, and the wells were washed with PBS (5 × 150 µL); cells were then stored with PBS (100 µL per well) at 4 °C pending analysis.
Plates were analyzed on an INcell Analyzer 2200 (Cytiva Life Sciences, Marlborough, MA, USA) using both laser autofocus (10%) and software autofocus modes, with ten random images per well covering a minimum of 80% of the well at 10x magnification. Non-morphologically affected inclusions were counted using a macro in ImageJ (v1.54f), and MIC was defined as being one two-fold dilution more concentrated than MICTP (where MICTP is defined as the lowest concentration to produce ≥90% morphologically abnormal inclusions) relative to solvent controls.

[3] = 62.5 µM, 30 h post infection, HEp-2 host cells

## CCC(C)Oc1oc(=O)c2ccccc2c1Cl (racemic) [Compound 2g, (±)-3-sec-Butoxy-4-chloroisocoumarin]
[1]; Table S1, variable slope four parameter fit, read-out: IC50 against HLE
  IC50: 1810 nM
[1]; [IC50 of JO146]/[IC50 test compound]
  Relative Potency against HLE: 0.451
[2]; [3]
  reduction of chlamydial growth: 49%

## CCC(C)Oc1oc(=O)c2cc(OC)ccc2c1Cl (racemic) [Compound 6h, (±)-7-Methoxy-3-sec-butoxy-4-chloroisocoumarin]
[2]; 62.5 µM
  statistical significance of anti-chlamydial activity: statistically significant anti-chlamydial activity

## CCC(C)Oc1oc(=O)c2cc(NC(=O)C(F)(F)F)ccc2c1Cl (racemic) [Compound 6d, (±)-N-(4-chloro-1-oxo-3-sec-butoxy-isochromen-7-yl)-2,2,2-trifluoroacetamide]
[2]; [3]
  anti-chlamydial activity against C. trachomatis: comparable efficacy to the methoxy (6h) analogue
[2]; 62.5 µM
  statistical significance of anti-chlamydial activity: statistically significant anti-chlamydial activity
other
  melting point: 189 to 190 °C

## CCC(C)Oc1oc(=O)c2cc(N(C)C)ccc2c1Cl (racemic) [Compound 6b, (±)-7-(Dimethylamino)-3-sec-butoxy-4-chloroisocoumarin]
[2]; [3]
  chlamydial inclusions affected: ≥ 90%
[2]; 62.5 µM
  statistical significance of anti-chlamydial activity: statistically significant anti-chlamydial activity
[2]; Chlamydia trachomatis, HEp-2, concentrations ≥ 31.25 µM, 30 h post infection, dose-response
  inhibition at 31.25 µM: > 90%
[2]; Chlamydia trachomatis, MIC defined as twice the MICTP (>90% altered chlamydial morphology), read-out: MIC (minimum inhibitory concentration) against C. trachomatis
  MIC: 62.5 µM (≈ 18.5 µg/mL)

## CCC(C)Oc1oc(=O)c2cc(N)ccc2c1Cl (racemic) [Compound 6a, (±)-7-Amino-4-chloro-3-sec-butoxyisocoumarin]
[2]; [3]
  chlamydial inclusions affected: ≥ 90%
[2]; 62.5 µM
  statistical significance of anti-chlamydial activity: statistically significant anti-chlamydial activity
[2]; any concentration tested, 30 h post infection, dose-response
  inhibition of C. trachomatis growth versus 90% threshold: did not consistently show inhibition greater than the 90% threshold

## CCC(C)Oc1oc(=O)c2cc(NC(C)=O)ccc2c1Cl (racemic) [Compound 6c, (±)-N-(4-Chloro-1-oxo-3-sec-butoxy-isochromen-7-yl)acetamide]
[2]; [3]
  anti-chlamydial activity against C. trachomatis: did not significantly affect the efficacy of 2g

## CCC(C)Oc1oc(=O)c2cc(I)ccc2c1Cl (racemic) [Compound 6e, (±)-3-sec-Butoxy-4-chloro-7-iodoisocoumarin]
[2]; [3]
  anti-chlamydial activity against C. trachomatis: did not significantly affect the efficacy of 2g
[2]; 62.5 µM
  statistical significance of anti-chlamydial activity: statistically significant anti-chlamydial activity
